How the values were obtained:
[1] = test system: growth hormone (GH) production; assay: GH production suppression test with rats; type: in vivo; conditions: Table 7 (Example 86), subcutaneous, 1 hour before GRF, plasma GH 5 minutes after GRF, vehicle 861
Procedure: This experimental line was carried out as a test line that can evaluate the pharmacological action of the glycosylated form on SSTR and its residence in blood after administration, with blood GH production amount as an indicator.
Moreover, GRF (GH releasing hormone, Growth hormone releasing factor) was used as the GH release enhancer. […] As heparin employed as the anticoagulant when collecting blood, Japanese Pharmacopeia heparin sodium injectable solution (Lot. B084, from Mochida Pharmaceutical Co., Ltd.) was used directly as stock solution.
As the control group, saline without glycosylated polypeptide was similarly administered (vehicle group). […] One hour after administration of the glycosylated form, i.e. after 50 minutes or more had passed under anesthesia, GRF was administered as the GH release enhancer to the tail vain at a dosage of 1 mL/kg with a glass syringe and an injection needle. Five minutes after administration of GRF, blood was collected from the rat cervical vein with a glass syringe containing heparin and an injection needle. 0.4 mL of the collected blood was left on ice for 20 minutes or more, then centrifuged (1,870×g, 4° C., 10 minutes), and 100 μL of the supernatant was taken as the plasma sample. As blank plasma, plasma obtained by similarly treating the blood collected from untreated rat cervical vein was employed. Plasma samples were frozen in storage until employed for measurement.
The plasma sample was diluted with the assay buffer supplied in the EIA kit to 20, 100, and 500-folds as measurement samples. […] By multiplying the results obtained and the dilution ratio, the GH concentration was calculated.

[2] = test system: rat gastrointestinal obstruction model; assay: Gastrointestinal obstruction model: blood parameters (amylase, LDH, CPK); conditions: Table 10; blood 1 hour after subcutaneous administration
Procedure: (§1) This experimental line was carried out as a test line to evaluate the promotion of intestinal fluid absorption or the secretory suppressing action, using the change in the intestinal fluid weight in the jejunum after bowel obstruction as an indicator. Moreover, blood parameters of deviation enzymes amylase (pancreas), lactate dehydrogenase (LDH, liver), and creatine phosphokinase (CPK, skeletal muscle, cardiac muscle etc.) were measured as indicators of tissue disorders.
Anesthesia was introduced with inhalation of 2% isoflurane and laughing gas:oxygen=7:3, and this was maintained throughout the surgery. A median incision was made in the abdomen, and the jejunum at about 10 cm from the musculus suspensorius duodeni was ligated with a surgical suture. Then, the incision site was promptly sutured, and the rats were fasted until compound administration. In the sham treatment group, ligation of the jejunum was not performed, but the treatment of suturing the incision site after a median incision was made in the abdomen was performed.
Eighteen hours after the gastrointestinal obstruction surgery, this was subcutaneously administered into the dorsal cervix at a dosage of 1 mL/kg with a glass syringe and a 25 G injection needle (all from Terumo Corporation). As the vehicle group, saline without glycosylated polypeptide was similarly administered.
One hour after compound administration, a median incision was made in the abdomen under inhalation anesthesia, and 1.5 mL of blood was collected from the abdominal vena cava. Then, the ligated jejunum on the musculus suspensorius duodeni side was resected. The fluid and blood on the jejunum surface were removed with a paper towel, nerves, blood vessels, and fat attached to the jejunum was removed, this was cut into 6 cm lengths, and wet weight was measured. This was then dried at 36 degrees for 24 hours, and dry weight was measured.
The measuring methods employed were BG5B, UV-rate, and JSCC methods, respectively.

[3] = test system: rat gastrointestinal obstruction model; assay: Gastrointestinal obstruction model: intestinal fluid weight; type: in vivo, rats; conditions: Table 9; jejunum, 1 hour after subcutaneous administration of 40 μM solution at 1 mL/kg, 18 hours after ligation
Procedure: as §1
Anesthesia was introduced with inhalation of 2% isoflurane and laughing gas:oxygen=7:3, and this was maintained throughout the surgery. A median incision was made in the abdomen, and the jejunum at about 10 cm from the musculus suspensorius duodeni was ligated with a surgical suture. Then, the incision site was promptly sutured, and the rats were fasted until compound administration. […]
One hour after compound administration, a median incision was made in the abdomen under inhalation anesthesia, and 1.5 mL of blood was collected from the abdominal vena cava. […] The fluid and blood on the jejunum surface were removed with a paper towel, nerves, blood vessels, and fat attached to the jejunum was removed, this was cut into 6 cm lengths, and wet weight was measured. This was then dried at 36 degrees for 24 hours, and dry weight was measured.

| Molecule | GH ([1]; dose 10 nmol/kg) | GH ([1]; dose 100 nmol/kg) | amylase activity compared to the vehicle (in words) [2] | Intestinal fluid weight [3] | further results |
| --- | --- | --- | --- | --- | --- |
| N19C(disialo)-SRIF28 [Example 10] | 563 ng/mL | 1.5 ng/mL | – | – | – |
| C(disialo)-R-K-SRIF14 [Example 18] | – | – | low value compared to the vehicle | – | LDH activity compared to the vehicle (in words) [2]: low value compared to the vehicle |
| S1-2C(asialo)-SRIF28 [Example 28] | – | – | – | 566 ± 34 mg | – |
| C[C@@H](O)[C@@H]1NC(=O)[C@H](CCCCN)NC(=O)[C@@H](Cc2c[nH]c3ccccc23)NC(=O)[C@H](Cc2ccccc2)NC(=O)[C@@H](NC(=O)[C@H](N)Cc2ccccc2)CSSC[C@@H](C(=O)N[C@H](CO)[C@@H](C)O)NC1=O [Octreotide, reference compound] | – | – | – | 693 ± 48 mg | – |
| S1C(disialo)-SRIF28 [Example 1] | – | – | low value compared to the vehicle | – | – |
| 29C(disialo)-SRIF28 [Example 13] | 497 ng/mL | 88.5 ng/mL | – | – | – |
